Measurements published in patent US9261498B2, “Biomarker for sensitivity to mTOR inhibitor therapy in kidney cancer” (The Regents of the University of California, priority 2005, dated 2016).
Entries after “also recorded” stand apart in the source; their conditions may differ.

Tested on: SN12C-VHLshRNA-HIF-2α mutant xenograft tumors
Test: Subcutaneous xenograft tumor growth, VHL knockdown cells with HIF-2α mutant
Assay type: in vivo, SCID mice
Conditions: 0.1 mg/kg CCI-779 daily
Procedure: FIGS. 4A-4C. Rescue of CCI-779 growth suppression by HIF-1-α and HIF-2-α prolyl hydcroxylase mutants. SN12C-CSCG-VHLshRNA cells stably infected with the prolyl hydroxylation defective cDNA mutants p-Babe-puro-HA-HIF-1α (P564A), HIF-2α (P405A; P531A) or backbone vector were treated with CCI-779 or vehicle and harvested 24 hours later. (a) Lysates were subjected to immunoblotting for HIF-1α, HIF-2α, GLUT-1, CA-IX, p-eIF4G, p-S6 and β-Actin as loading control. (b) SN12C-VHLshRNA, SN12C-VHLshRNA-HIF-1α mutant, SN12C-VHLshRNA-HIF-2α mutant cells (1×10^5) were cultured in 10% serum rich media, in the presence of vehicle, 1 or 10 nM of CCI-779 for 5 days. Cell growth was measured by cell counts (n=3). […]
For in vitro experiments, cells (5×10^4) were plated and treated with 1 and 10 nM CCI-779 (kind gift of J. Gibbons, Wyeth) or vehicle (ethanol). On day 5-post treatment, cells were trypsinized, resuspended in DMEM with 10% FBS and counted using the VI CELL counter (Beckman Coulter), according to the manufacturer's instructions. […] In vivo tumorigenicity was measured by injection of 5×10^5 SN12C-CSCG, ACHN-CSCG, SN12C-CSCG-VHLshRNAi, ACHN-CSCG-VHLshRNAi, SN12C-CSCG-VHLshRNAi-pBABE, SN12C-CSCG-VHLshRNAi-pBABE-HA-HIF-2α (P405A; P531A) cells in 100 μl of Matrigel (Collaborative Biomedical) subcutaneously into the flanks of SCID mice. […]

CO[C@H]1C[C@@H]2CC[C@@H](C)[C@@](O)(O2)C(=O)C(=O)N2CCCC[C@H]2C(=O)O[C@H]([C@H](C)C[C@@H]2CC[C@@H](OC(=O)C(C)(CO)CO)[C@H](OC)C2)CC(=O)[C@H](C)/C=C(\C)[C@@H](O)[C@@H](OC)C(=O)[C@H](C)C[C@H](C)/C=C/C=C/C=C/1C [CCI-779]
growth inhibitory effect of CCI-779 in HIF mutant xenografts: completely rescued; also recorded: reversal of both the in vitro and in vivo sensitivity
